Assay results published in the supplement of paper PMC10307832.

Experiments:
Experiment in all cases: relative viability (nuclei count vs DMSO), 5 days (fraction); higher = more cells survive
NCI-H2023 = tested on: NCI-H2023
In short: (§1)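 Lung cancer cell lines were pin-tool dosed in 1536-well plates on the day after seeding, with either a lone drug or a fixed anchor-drug dose plus five library-drug doses (not always all listed) in √10 steps. Nuclei were counted on 4× images after 5 days. Relative viability is the ratio of treated-well to vehicle-well nuclei counts, with each value a median of duplicate plates.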

NCI-H2126 = tested on: NCI-H2126
In short: as §1

HCC-15 = tested on: HCC-15
In short: as §1

LC-2-ad = tested on: LC-2-ad
In short: as §1

NCI-H3122 = tested on: NCI-H3122
In short: as §1

NCI-H1755 = tested on: NCI-H1755
In short: as §1

LU99A = tested on: LU99A
In short: as §1

BEN = tested on: BEN
In short: as §1

NCI-H1915 = tested on: NCI-H1915
In short: as §1

SW 1573 = tested on: SW 1573
In short: as §1

HOP-62 = tested on: HOP-62
In short: as §1

EMC-BAC-2 = tested on: EMC-BAC-2
In short: as §1

HCC-44 = tested on: HCC-44
In short: as §1

NCI-H1734 = tested on: NCI-H1734
In short: as §1

NCI-H1395 = tested on: NCI-H1395
In short: as §1

NCI-H1437 = tested on: NCI-H1437
In short: as §1

NCI-H727 = tested on: NCI-H727
In short: as §1

NCI-H358 = tested on: NCI-H358
In short: as §1

SW 900 = tested on: SW 900
In short: as §1

NCI-H2170 = tested on: NCI-H2170
In short: as §1

NCI-H1563 = tested on: NCI-H1563
In short: as §1

NCI-H650 = tested on: NCI-H650
In short: as §1

**Q.** Which results are given for `Cc1csc(=NC2CCCCC2)n1/N=C/c1ccc(O)c(O)c1O` [MIM1] + COc1cccc2cc(-c3nc([C@H]4CC[C@H](C(=O)O)CC4)n4ncnc(N)c34)[nH]c12 [OSI-027] (partner 0.5 µM)?
**A.** relative viability (NCI-H2023; first compound 0.2 µM): 0.422; relative viability (NCI-H2023; first compound 0.6325 µM): 0.501; relative viability (NCI-H2023; first compound 2 µM): 0.305; relative viability (NCI-H2023; first compound 6.325 µM): 0.182; relative viability (NCI-H2023; first compound 20 µM): 0.0588; relative viability (NCI-H2126; first compound 0.2 µM): 0.758; relative viability (NCI-H2126; first compound 0.6325 µM): 0.672; relative viability (NCI-H2126; first compound 2 µM): 0.732; relative viability (NCI-H2126; first compound 6.325 µM): 0.657; relative viability (NCI-H2126; first compound 20 µM): 0.466; relative viability (HCC-15; first compound 0.2 µM): 0.747; relative viability (HCC-15; first compound 2 µM): 0.778; relative viability (HCC-15; first compound 6.325 µM): 0.469; relative viability (HCC-15; first compound 20 µM): 0.102; relative viability (LC-2-ad; first compound 0.2 µM): 0.909; relative viability (LC-2-ad; first compound 0.6325 µM): 0.591; relative viability (LC-2-ad; first compound 2 µM): 0.754; relative viability (LC-2-ad; first compound 6.325 µM): 0.373; relative viability (LC-2-ad; first compound 20 µM): 0.218; relative viability (NCI-H3122; first compound 0.2 µM): 1.04; relative viability (NCI-H3122; first compound 0.6325 µM): 1.11; relative viability (NCI-H3122; first compound 2 µM): 0.904; relative viability (NCI-H3122; first compound 6.325 µM): 0.398; relative viability (NCI-H3122; first compound 20 µM): 0.175; relative viability (NCI-H1755; first compound 0.2 µM): 0.833; relative viability (NCI-H1755; first compound 0.6325 µM): 0.69; relative viability (NCI-H1755; first compound 2 µM): 0.779; relative viability (NCI-H1755; first compound 6.325 µM): 0.703; relative viability (NCI-H1755; first compound 20 µM): 0.223; relative viability (LU99A; first compound 0.2 µM): 0.274; relative viability (LU99A; first compound 0.6325 µM): 0.29; relative viability (LU99A; first compound 2 µM): 0.273; relative viability (LU99A; first compound 6.325 µM): 0.288; relative viability (LU99A; first compound 20 µM): 0.233; relative viability (BEN; first compound 0.2 µM): 0.309; relative viability (BEN; first compound 0.6325 µM): 0.315; relative viability (BEN; first compound 2 µM): 0.28; relative viability (BEN; first compound 6.325 µM): 0.318; relative viability (BEN; first compound 20 µM): 0.298; relative viability (NCI-H1915; first compound 0.2 µM): 0.669; relative viability (NCI-H1915; first compound 0.6325 µM): 0.495; relative viability (NCI-H1915; first compound 2 µM): 0.609; relative viability (NCI-H1915; first compound 6.325 µM): 0.49; relative viability (NCI-H1915; first compound 20 µM): 0.232; relative viability (SW 1573; first compound 0.2 µM): 0.689; relative viability (SW 1573; first compound 0.6325 µM): 0.724; relative viability (SW 1573; first compound 2 µM): 0.544; relative viability (SW 1573; first compound 6.325 µM): 0.46; relative viability (SW 1573; first compound 20 µM): 0.0875; relative viability (HOP-62; first compound 0.2 µM): 0.848; relative viability (HOP-62; first compound 0.6325 µM): 0.912; relative viability (HOP-62; first compound 2 µM): 0.789; relative viability (HOP-62; first compound 6.325 µM): 0.666; relative viability (HOP-62; first compound 20 µM): 0.19; relative viability (EMC-BAC-2; first compound 0.2 µM): 0.422; relative viability (EMC-BAC-2; first compound 0.6325 µM): 0.36; relative viability (EMC-BAC-2; first compound 2 µM): 0.357; relative viability (EMC-BAC-2; first compound 6.325 µM): 0.344; relative viability (EMC-BAC-2; first compound 20 µM): 0.253; relative viability (HCC-44; first compound 0.2 µM): 0.699; relative viability (HCC-44; first compound 0.6325 µM): 0.5; relative viability (HCC-44; first compound 2 µM): 0.271; relative viability (HCC-44; first compound 6.325 µM): 0.448; relative viability (HCC-44; first compound 20 µM): 0.184; relative viability (NCI-H1734; first compound 0.2 µM): 0.666; relative viability (NCI-H1734; first compound 0.6325 µM): 0.495; relative viability (NCI-H1734; first compound 2 µM): 0.525; relative viability (NCI-H1734; first compound 6.325 µM): 0.304; relative viability (NCI-H1734; first compound 20 µM): 0.201; relative viability (NCI-H1395; first compound 0.2 µM): 0.592; relative viability (NCI-H1395; first compound 0.6325 µM): 0.63; relative viability (NCI-H1395; first compound 2 µM): 0.618; relative viability (NCI-H1395; first compound 6.325 µM): 0.508; relative viability (NCI-H1395; first compound 20 µM): 0.374; relative viability (NCI-H1437; first compound 0.2 µM): 0.935; relative viability (NCI-H1437; first compound 0.6325 µM): 0.854; relative viability (NCI-H1437; first compound 2 µM): 0.952; relative viability (NCI-H1437; first compound 6.325 µM): 0.599; relative viability (NCI-H1437; first compound 20 µM): 0.186; relative viability (NCI-H727; first compound 0.2 µM): 0.619; relative viability (NCI-H727; first compound 0.6325 µM): 0.712; relative viability (NCI-H727; first compound 2 µM): 0.599; relative viability (NCI-H727; first compound 6.325 µM): 0.552; relative viability (NCI-H727; first compound 20 µM): 0.338; relative viability (NCI-H358; first compound 0.2 µM): 0.772; relative viability (NCI-H358; first compound 0.6325 µM): 0.7; relative viability (NCI-H358; first compound 2 µM): 0.755; relative viability (NCI-H358; first compound 6.325 µM): 0.447; relative viability (NCI-H358; first compound 20 µM): 0.128; relative viability (SW 900; first compound 0.2 µM): 0.54; relative viability (SW 900; first compound 0.6325 µM): 0.789; relative viability (SW 900; first compound 2 µM): 0.703; relative viability (SW 900; first compound 6.325 µM): 0.441; relative viability (SW 900; first compound 20 µM): 0.191; relative viability (NCI-H2170; first compound 0.2 µM): 0.714; relative viability (NCI-H2170; first compound 0.6325 µM): 0.595; relative viability (NCI-H2170; first compound 2 µM): 0.637; relative viability (NCI-H2170; first compound 6.325 µM): 0.461; relative viability (NCI-H2170; first compound 20 µM): 0.2; relative viability (NCI-H1563; first compound 0.2 µM): 0.725; relative viability (NCI-H1563; first compound 0.6325 µM): 0.821; relative viability (NCI-H1563; first compound 2 µM): 0.688; relative viability (NCI-H1563; first compound 6.325 µM): 0.72; relative viability (NCI-H1563; first compound 20 µM): 0.525; relative viability (NCI-H650; first compound 0.2 µM): 0.563; relative viability (NCI-H650; first compound 0.6325 µM): 0.414; relative viability (NCI-H650; first compound 2 µM): 0.484; relative viability (NCI-H650; first compound 6.325 µM): 0.533; relative viability (NCI-H650; first compound 20 µM): 0.36
